{
  "source": "patent US20120244193A1",
  "about": "“PASSIVE SOLID TUMOR TARGETING ANTICANCER PRODRUG AND PREPARATION METHOD THEREOF” (priority 2009, published 2012)",
  "assay_in_all_cases": "Inhibition of growth activity of tumor cell lines in vitro by MTT method",
  "key": {"[1]": {"system": "B16", "format": "cell-based, mouse", "details": "B16, equivalent to 2 mg/ml doxorubicin, drug treatment 24 hours", "method": "(§1) The passive solid tumor-targeted anticancer prodrug used in the test was prepared in the test example 1 (equivalent to 2 mg/ml doxorubicin).\n(§2) Cell solution (with concentration of 50,000 cells/ml) growing in logarithmic growth phase cultured with RPMI 1640 culture medium was inoculated on a 96 well plate with 0.1 ml/well, and subject to corresponding drug treatment after incubation for 24 hours. After drug treatment for 24 hours, 0.02 ml 5 mg/ml 3-(4,5-dimethylthiazolyl-2)-2,5-diphenyltetrazolium bromide (MTT) was added for treatment for 4 hours, then culture solution was removed, 0.15 ml dimethylsulfoxide (DMSO) was added, and light absorption value was determined at 570 nm by a microplate reader."}, "[2]": {"system": "NCI-H446", "format": "cell-based", "details": "Homo sapiens; NCI-H446, doxorubicin concentration 2 mg/ml, drug treatment 24 hours; read-out: Inhibition rate (%)", "method": "as §1, §2"}, "[3]": {"system": "A549", "format": "cell-based", "details": "Homo sapiens; A549, doxorubicin concentration 2 mg/ml, drug treatment 24 hours; read-out: Inhibition rate (%)", "method": "as §1, §2"}, "[4]": {"system": "2780-CP", "format": "cell-based", "details": "equivalent to 2 mg/ml doxorubicin, drug treatment 24 hours", "method": "as §1, §2"}, "[5]": {"system": "2780-S", "format": "cell-based", "details": "equivalent to 2 mg/ml doxorubicin, drug treatment 24 hours", "method": "as §1, §2"}},
  "note": "Counter-ions that a name gives are not always drawn.",
  "data": [
    {"smiles": "COc1cccc2c1C(=O)c1c(O)c3c(c(O)c1C2=O)C[C@@](O)(C(=O)CO)C[C@@H]3O[C@H]1C[C@H](N)[C@H](O)[C@H](C)O1", "note": "[doxorubicin hydrochloride]", "values": [
      {"measurement": "Inhibition rate (%)", "setting": "[1]", "value": 85.9, "unit": "%"},
      {"measurement": "inhibition at 2000 µg/mL", "setting": "[2]", "value": 63.3, "unit": "%"},
      {"measurement": "inhibition at 2000 µg/mL", "setting": "[3]", "value": 67.6, "unit": "%"},
      {"measurement": "Inhibition rate (%)", "setting": "[4]", "value": 49.3, "unit": "%"},
      {"measurement": "Inhibition rate (%)", "setting": "[5]", "value": 52.8, "unit": "%"}
    ]}
  ]
}
